Measured values from PubChem BioAssay (NCI).
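Test compounds were applied to cells in 96-well plates for 48 hours at 5 doses. At the TGI there is no net growth.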

Columns and labels:
Assay in all cases: NCI tumour cell line growth inhibition, 48 h
RXF 393 renal = system: RXF 393 renal
DU-145 prostate = system: DU-145 prostate
CCRF-CEM leukemia = system: CCRF-CEM leukemia
T-47D breast = system: T-47D breast
COLO 205 colon = system: COLO 205 colon
786-0 renal = system: 786-0 renal
EKVX NSCLC = system: EKVX NSCLC
HOP-92 NSCLC = system: HOP-92 NSCLC
A549 NSCLC = system: A549 NSCLC
OVCAR-5 ovarian = system: OVCAR-5 ovarian
SK-MEL-5 melanoma = system: SK-MEL-5 melanoma
LOX IMVI melanoma = system: LOX IMVI melanoma
NCI-H226 lung = system: NCI-H226 lung
SK-MEL-2 melanoma = system: SK-MEL-2 melanoma
NCI-H23 lung = system: NCI-H23 lung
UO-31 renal = system: UO-31 renal
UACC-257 melanoma = system: UACC-257 melanoma
SNB-75 CNS = system: SNB-75 CNS
HOP-62 NSCLC = system: HOP-62 NSCLC
MDA-N = system: MDA-N
HCT-15 colon = system: HCT-15 colon
MDA-MB-435 = system: MDA-MB-435
HL-60(TB) leukemia = system: HL-60(TB) leukemia
SR leukemia = system: SR leukemia
SK-MEL-28 melanoma = system: SK-MEL-28 melanoma
OVCAR-3 ovarian = system: OVCAR-3 ovarian
NCI-H522 lung = system: NCI-H522 lung
PC-3 prostate = system: PC-3 prostate
RPMI-8226 leukemia = system: RPMI-8226 leukemia
MDA-MB-231 breast = system: MDA-MB-231 breast
K-562 leukemia = system: K-562 leukemia
MALME-3M melanoma = system: MALME-3M melanoma
SK-OV-3 ovarian = system: SK-OV-3 ovarian
CAKI-1 renal = system: CAKI-1 renal
IGROV1 ovarian = system: IGROV1 ovarian
HT29 colon = system: HT29 colon
U251 CNS = system: U251 CNS
ACHN renal = system: ACHN renal
M14 melanoma = system: M14 melanoma
SF-268 CNS = system: SF-268 CNS
HS 578T breast = system: HS 578T breast
HCT-116 colon = system: HCT-116 colon
BT-549 breast = system: BT-549 breast
MOLT-4 leukemia = system: MOLT-4 leukemia
MCF7 breast = system: MCF7 breast
OVCAR-4 ovarian = system: OVCAR-4 ovarian
UACC-62 melanoma = system: UACC-62 melanoma
TK-10 renal = system: TK-10 renal
SF-295 CNS = system: SF-295 CNS
NCI/ADR-RES ovarian = system: NCI/ADR-RES ovarian
OVCAR-8 ovarian = system: OVCAR-8 ovarian
SNB-19 CNS = system: SNB-19 CNS
NCI-H460 lung = system: NCI-H460 lung
A498 renal = system: A498 renal
SW-620 colon = system: SW-620 colon
SF-539 CNS = system: SF-539 CNS
KM12 colon = system: KM12 colon
HCC-2998 colon = system: HCC-2998 colon
SN12C renal = system: SN12C renal

CC(=Nc1c2ccccc2nc2ccccc12)N(C)C
TGI (RXF 393 renal): 78.1 µM
TGI (DU-145 prostate): > 100 µM
TGI (CCRF-CEM leukemia): > 100 µM
TGI (T-47D breast): 54.5 µM
TGI (COLO 205 colon): 25.2 µM
TGI (786-0 renal): > 100 µM
TGI (EKVX NSCLC): > 100 µM
TGI (HOP-92 NSCLC): 37.2 µM
TGI (A549 NSCLC): > 100 µM
TGI (OVCAR-5 ovarian): > 100 µM
TGI (SK-MEL-5 melanoma): 27.8 µM
TGI (LOX IMVI melanoma): 26.7 µM
TGI (NCI-H226 lung): 45.7 µM
TGI (SK-MEL-2 melanoma): 46 µM
TGI (NCI-H23 lung): 41.1 µM
TGI (UO-31 renal): 54.6 µM
TGI (UACC-257 melanoma): 43.5 µM
TGI (SNB-75 CNS): 71 µM
TGI (HOP-62 NSCLC): 66.2 µM
TGI (MDA-N): 90.3 µM
TGI (HCT-15 colon): > 100 µM
TGI (MDA-MB-435): > 100 µM
TGI (HL-60(TB) leukemia): 24 µM
TGI (SR leukemia): 23.3 µM
TGI (SK-MEL-28 melanoma): 61.5 µM
TGI (OVCAR-3 ovarian): 46.5 µM
TGI (NCI-H522 lung): 25.5 µM
TGI (PC-3 prostate): 46.8 µM
TGI (RPMI-8226 leukemia): 38.2 µM
TGI (MDA-MB-231 breast): 30.4 µM
TGI (K-562 leukemia): 25.4 µM
TGI (MALME-3M melanoma): > 100 µM
TGI (SK-OV-3 ovarian): > 100 µM
TGI (CAKI-1 renal): > 100 µM
TGI (IGROV1 ovarian): > 100 µM
TGI (HT29 colon): 27.4 µM
TGI (U251 CNS): 72 µM
TGI (ACHN renal): 76.4 µM
TGI (M14 melanoma): 25.4 µM
TGI (SF-268 CNS): > 100 µM
TGI (HS 578T breast): 69.8 µM
TGI (HCT-116 colon): 27.6 µM
TGI (BT-549 breast): 90.7 µM
TGI (MOLT-4 leukemia): 44.8 µM
TGI (MCF7 breast): 78.8 µM
TGI (OVCAR-4 ovarian): 90.8 µM
TGI (UACC-62 melanoma): 32.9 µM
TGI (TK-10 renal): > 100 µM
TGI (SF-295 CNS): > 100 µM
TGI (NCI/ADR-RES ovarian): 54.8 µM
TGI (OVCAR-8 ovarian): 52.4 µM
TGI (SNB-19 CNS): > 100 µM

O=C(/C=C/c1ccc(-c2ccccc2)cc1)NCc1ccc(C(=O)NCCc2c[nH]c3ccccc23)cc1
TGI (RXF 393 renal): > 100 µM
TGI (DU-145 prostate): > 100 µM
TGI (CCRF-CEM leukemia): 32.1 µM
TGI (T-47D breast): > 100 µM
TGI (COLO 205 colon): > 100 µM
TGI (786-0 renal): 26.7 µM
TGI (EKVX NSCLC): 94.8 µM
TGI (NCI-H460 lung): > 100 µM
TGI (A498 renal): 80.4 µM
TGI (HOP-92 NSCLC): > 100 µM
TGI (A549 NSCLC): 60.4 µM
TGI (OVCAR-5 ovarian): 66.6 µM
TGI (SK-MEL-5 melanoma): > 100 µM
TGI (LOX IMVI melanoma): > 100 µM
TGI (NCI-H226 lung): 60.1 µM
TGI (SK-MEL-2 melanoma): > 100 µM
TGI (NCI-H23 lung): > 100 µM
TGI (UO-31 renal): > 100 µM
TGI (UACC-257 melanoma): > 100 µM
TGI (SW-620 colon): > 100 µM
TGI (SNB-75 CNS): 42.8 µM
TGI (HOP-62 NSCLC): 36.7 µM
TGI (MDA-N): > 100 µM
TGI (HCT-15 colon): > 100 µM
TGI (MDA-MB-435): > 100 µM
TGI (SF-539 CNS): > 100 µM
TGI (SR leukemia): > 100 µM
TGI (SK-MEL-28 melanoma): > 100 µM
TGI (OVCAR-3 ovarian): 92.6 µM
TGI (NCI-H522 lung): > 100 µM
TGI (PC-3 prostate): > 100 µM
TGI (RPMI-8226 leukemia): > 100 µM
TGI (MDA-MB-231 breast): 42.1 µM
TGI (K-562 leukemia): 45.6 µM
TGI (MALME-3M melanoma): > 100 µM
TGI (SK-OV-3 ovarian): 35.2 µM
TGI (KM12 colon): > 100 µM
TGI (CAKI-1 renal): 40.7 µM
TGI (IGROV1 ovarian): > 100 µM
TGI (HT29 colon): 29.3 µM
TGI (U251 CNS): > 100 µM
TGI (ACHN renal): > 100 µM
TGI (M14 melanoma): > 100 µM
TGI (SF-268 CNS): > 100 µM
TGI (HS 578T breast): > 100 µM
TGI (HCC-2998 colon): > 100 µM
TGI (HCT-116 colon): > 100 µM
TGI (BT-549 breast): > 100 µM
TGI (MOLT-4 leukemia): 38.8 µM
TGI (MCF7 breast): > 100 µM
TGI (OVCAR-4 ovarian): 72.1 µM
TGI (UACC-62 melanoma): > 100 µM
TGI (TK-10 renal): 86.8 µM
TGI (SF-295 CNS): 38.6 µM
TGI (NCI/ADR-RES ovarian): > 100 µM
TGI (OVCAR-8 ovarian): > 100 µM
TGI (SN12C renal): 23.8 µM
TGI (SNB-19 CNS): 53.6 µM

O=C(Nc1nnc(-c2ccccc2)o1)C(SC(=S)N1CCOCC1)c1ccccc1 (stereo not given)
TGI (RXF 393 renal): > 100 µM
TGI (DU-145 prostate): > 100 µM
TGI (CCRF-CEM leukemia): > 100 µM
TGI (T-47D breast): > 100 µM
TGI (COLO 205 colon): > 100 µM
TGI (786-0 renal): > 100 µM
TGI (EKVX NSCLC): 55.5 µM
TGI (NCI-H460 lung): 66.1 µM
TGI (A498 renal): 89.6 µM
TGI (A549 NSCLC): > 100 µM
TGI (OVCAR-5 ovarian): 88.8 µM
TGI (SK-MEL-5 melanoma): 38.7 µM
TGI (LOX IMVI melanoma): > 100 µM
TGI (NCI-H226 lung): > 100 µM
TGI (SK-MEL-2 melanoma): > 100 µM
TGI (NCI-H23 lung): 69 µM
TGI (UO-31 renal): > 100 µM
TGI (UACC-257 melanoma): > 100 µM
TGI (SW-620 colon): > 100 µM
TGI (SNB-75 CNS): > 100 µM
TGI (HOP-62 NSCLC): > 100 µM
TGI (MDA-N): > 100 µM
TGI (HCT-15 colon): > 100 µM
TGI (MDA-MB-435): > 100 µM
TGI (HL-60(TB) leukemia): 36.3 µM
TGI (SF-539 CNS): > 100 µM
TGI (SR leukemia): 83.7 µM
TGI (SK-MEL-28 melanoma): > 100 µM
TGI (OVCAR-3 ovarian): 79.7 µM
TGI (NCI-H522 lung): 93.5 µM
TGI (PC-3 prostate): > 100 µM
TGI (RPMI-8226 leukemia): > 100 µM
TGI (MDA-MB-231 breast): > 100 µM
TGI (K-562 leukemia): > 100 µM
TGI (MALME-3M melanoma): > 100 µM
TGI (SK-OV-3 ovarian): > 100 µM
TGI (KM12 colon): > 100 µM
TGI (CAKI-1 renal): > 100 µM
TGI (IGROV1 ovarian): > 100 µM
TGI (HT29 colon): > 100 µM
TGI (U251 CNS): > 100 µM
TGI (ACHN renal): > 100 µM
TGI (M14 melanoma): > 100 µM
TGI (HS 578T breast): > 100 µM
TGI (HCT-116 colon): > 100 µM
TGI (BT-549 breast): > 100 µM
TGI (MOLT-4 leukemia): 83.1 µM
TGI (MCF7 breast): > 100 µM
TGI (OVCAR-4 ovarian): > 100 µM
TGI (TK-10 renal): > 100 µM
TGI (SF-295 CNS): > 100 µM
TGI (NCI/ADR-RES ovarian): 64.7 µM
TGI (OVCAR-8 ovarian): > 100 µM
TGI (SN12C renal): > 100 µM
TGI (SNB-19 CNS): > 100 µM
